From patent US12152991B2, “Time-resolved laser-induced fluorescence spectroscopy systems and uses thereof” (Cedars-Sinai Medical Center, priority 2013, dated 2024)

Test system: rabbit brain tissue
Experiment: Continuous NADH fluorescence monitoring (TRLIFS) in ex-vivo brain tissue exposed to Rotenone
Type: cell-based
Details: FIG. 6
Text: In order to excite the tissue, a Q-switched Nd:YaG laser emitting at a wavelength of 350 nm was used, running at 1 KHz with a pulse width (FWHM) of 400 ps (Teem Photonics PNVM02510). […] The excitation light was delivered to the tissue using a custom made trifurcated optical probe. The probe consisted of a central 600 micron fiber for delivering the excitation light surrounded by twelve 200 micron fibers to collect the fluorescence (FIG. 3). Every other fiber from the twelve collection fibers were bundled together forming two channels. One collection channel/bundle connected to a spectrometer (Ocean Optics, Maya), which measured the fluorescence spectrum every 100 ms and the other channel/bundle connected to a beam splitter (demultiplexer). The beam splitter at 452 nm of wavelength separated the significant free and bound fluorescence, which was recorded both by MCP-PMT and spectrometer.
Rabbit brain was removed after sacrificing the animal in the OR and transported in cold oxygen rich Kreb-ringer solution to the laboratory. […] A baseline NADH (bound and free) was recorded till the fluorescence from the tissue equilibrated and plateaued. After approximately 30 mins, a measured dose of 50 nM rotenone, which blocks the binding of NADH to […] in the mitochondrion, was added. […]
The effect of various concentrations of Rotenone on the rabbit brain tissue was recorded (FIG. 6). […]

Structure (SMILES): C=C(C)[C@H]1Cc2c(ccc3c2O[C@@H]2COc4cc(OC)c(OC)cc4[C@@H]2C3=O)O1 [Rotenone]
- NADH level (fluorescence, free and bound) (ex-vivo rabbit brain cortex in Kreb-Ringer solution, 95% O2/5% CO2, 50 nM Rotenone added, excitation 350 nm): increase in NADH level
- NADH fluorescence (ex-vivo rabbit brain cortex, increasing concentrations of Rotenone added every 10 mins): NADH fluorescence increased
